Measured values as given in BigSolDB 2.1.

COc1cc2c(cc1OC)-c1cc3ccc(OC)c(OC)c3c[n+]1CC2.[Cl-]
solubility (mole fraction)
Settings | 283.15 K | 288.15 K | 293.15 K | 298.15 K | 303.15 K | 308.15 K | 313.15 K | 318.15 K | 323.15 K | 328.15 K
in ethanol | 0.00254 | 0.00299 | 0.00366 | 0.0045 | 0.00543 | 0.00651 | 0.00779 | 0.00914 | 0.0108 | 0.0127
in ethylene glycol | 0.00173 | 0.00202 | 0.00242 | 0.003 | 0.00362 | 0.00441 | 0.00529 | 0.00631 | 0.00745 | 0.00882
in isopropanol | 0.000177 | 0.000218 | 0.00028 | 0.000374 | 0.000479 | 0.000603 | 0.000754 | 0.000933 | 0.00115 | 0.00141
in propylene glycol | 6.32e-06 | 9.38e-06 | 1.36e-05 | 2.11e-05 | 3.12e-05 | 4.53e-05 | 6.48e-05 | 9.27e-05 | 0.00013 | 0.00018
in water | 0.000565 | 0.000693 | 0.000877 | 0.0011 | 0.00136 | 0.00165 | 0.002 | 0.0024 | 0.00287 | 0.00341
